Data taken from US11318190B2, “Methods and compositions for treating liver disease” (UNITED STATES GOVERNMENT AS REPRESENTED BY THE DEPARTMENT …, priority 2017, dated 2022).

Key:
IMCLs = IMCLs treated with Sct with/without microRNA 125b mimic precursor, TGF-β1 or r-VEGFA (Example 4); type: cell-based, mouse; settings: Sct 10 nM, 12 hr
Procedure: Cholangiocytes were obtained by immunoaffinity separation, Cholangiocytes were obtained by immunoaffinity separation as described herein above, using a monoclonal antibody (a gift from Dr. R. Faris, Brown University, Providence, R.I.) that is expressed by all intrahepatic cholangiocytes. Cell viability (greater than 97%) was assessed by trypan blue exclusion. HSCs were isolated by LCM as described herein above. Frozen liver sections (n=3, 10 μm thick) were incubated overnight with an antibody against desmin (marker of stellate cells). Following staining, desmin-positive HSCs were dissected from the slides by a LCM system Leica LMD7000 (Buffalo Grove, Ill.) and collected into a PCR tube before being analyzed. The RNA from HSCs was extracted with the Arcturus PicoPure RNA isolation kit (Thermo Fisher Scientific CO, Mountain View, Calif.). The in vitro studies were performed in our immortalized murine biliary cell lines (IMCLs) and human hepatic stellate cell lines (HHSteCs, Sciencell, Carlsbad, USA).
In biliary supernatants, the levels of TGF-β1 were measured by ELISA kits. […] We also evaluated by immunofluorescence the expression of VEGFR-2 in cell smears of IMCLs and HHSteCs. […]

HHSteCs = HHSteCs incubated with biliary/IMCL supernatants with/without LY2109761, or with TGF-β1 (Example 2); type: cell-based, human
Procedure: Biliary supernatants were obtained from normal and BDL WT mice and Sct^−/−, SR^−/− and Sct^−/−/SR^−/− BDL mice as well as normal WT mice treated with saline or secretin. HHSteCs were incubated with the aforementioned biliary supernatants (containing different levels of TGF-β1) for 24 hr (in the absence or presence of LY2109761) before measuring the expression of senescence and fibrosis genes by real-time PCR. Furthermore, HHSteCs were incubated with the supernatant of large IMCLs treated for 0.2% bovine serum albumin (basal) or secretin (10 nM) with/without LY2109761 for 6 hr before measuring the mRNA expression of fibrosis and senescence genes. To provide direct evidence that TGF-β1 directly modulates fibrosis and senescence of IMCLs and HHSteCs, these cells were stimulated with TGF-β1 (10 nM) for 24 hr before measuring the expression of PCNA as well as fibrosis and senescence genes by real-time PCR.

[1] = test system: human hepatic stellate cells (hHSC); experiment: hHSC activation by cholangiocyte supernatants from treated mice (qPCR); type: cell-based
Procedure: In vitro experiments were performed in human hepatic stellate cells (hHSC) that were purchased from ScienCell Research Laboratories (Carlsbad, Calif.) that were maintained in standard conditions.
[…] Activation of hHSCs was determined by qPCR for FN-1, TGF-β1, α-SMA, and collagen type-1a (Kennedy, L L et al., Knockout of microRNA-21 reduces biliary hyperplasia and liver fibrosis in cholestatic bile duct ligated mice, Lab Invest 96:1256-1267 (2016)).

WT mice = WT mice treated 1 wk with secretin: TGF-β1, fibrosis, cellular senescence; type: in vivo, mouse
Procedure: WT mice were treated for 1 wk with saline or secretin (Sct; 2.5 nmoles/kg body weight per day) before collecting cholangiocytes, HSCs and cholangiocyte supernatants. The levels of TGF-β1 were measured in short-term (6-hour) cultures of cholangiocytes by ELISA kits. Subsequently, we measured: (i) liver fibrosis by immunofluorescence for Col1a1 in liver sections and real-time PCR for TGF-β1, TFG-β1R, Col1a1, α-SMA and Fn1 in cholangiocytes and HSCs; and (ii) cellular senescence by immunofluorescence in liver sections for p16 and real-time PCR for p16 and p21 in cholangiocytes and HSC.

[2] = cholangiocyte supernatant from secretin-treated WT mice, 24 hr
[3] = supernatant of large IMCLs after secretin 10 nM, 6 hr

## secretin [Sct]
IMCLs
  TGF-β1 mRNA expression of IMCLs and TGF-β1 levels in IMCLs supernatant: increased
HHSteCs; [2]
  expression of fibrosis genes in HHSteCs: increased expression
  expression of senescence genes in HHSteCs: reduced expression
HHSteCs; [3]
  expression of senescence genes of HHSteCs: decreases
  fibrosis gene expression of HHSteCs: increases
[1]; cholangiocyte supernatants from treated dnTGF-βRII mice 12 wks
  expression of FN-1, TGF-β1, α-SMA and collagen type-1a in hHSCs: further enhanced
[1]; cholangiocyte supernatants from treated dnTGF-βRII mice 34 wks
  expression of FN-1, TGF-β1, α-SMA and collagen type-1a in hHSCs: reduced
WT mice; secretin 2.5 nmoles/kg/day 1 wk vs saline
  TGF-β1 levels in cholangiocyte supernatant: enhanced levels
WT mice; secretin 1 wk
  biliary immunoreactivity of Collagen I and mRNA of TGF-β1, TFG-β1R, Col1a1, α-SMA, Fn1 in cholangiocytes and HSCs: increased
  p16 immunoreactivity in liver sections, p16 and p21 expression in cholangiocytes: enhanced
WT mice; secretin 1 wk vs saline
  p16 and p21 mRNA expression in isolated HSCs: reduced
